According to paper PMC7534351, “Imidazothiazole-based potent inhibitors of V600E-B-RAF kinase with promising anti-melanoma activity: biological and computational studies” (Journal of Enzyme Inhibition and Medicinal Chemistry, 2020):
Read-outs that look alike come from different tables or passages of the source.

What was measured:
[1] = biological target: RAF1 (Homo sapiens, UniProt P04049); assay: Cell-free kinase profiling, RAF1; type: biochemical; details: for inhibition at 1 µM / One-dose (1 µM) results against RAF1 (% inhibition): mean of duplicate assays ± SEM; for inhibition at 1 µM: read-out: One-dose (1 µM) results against RAF1 (% inhibition)
Chain of RAF1 (P04049 whole entry): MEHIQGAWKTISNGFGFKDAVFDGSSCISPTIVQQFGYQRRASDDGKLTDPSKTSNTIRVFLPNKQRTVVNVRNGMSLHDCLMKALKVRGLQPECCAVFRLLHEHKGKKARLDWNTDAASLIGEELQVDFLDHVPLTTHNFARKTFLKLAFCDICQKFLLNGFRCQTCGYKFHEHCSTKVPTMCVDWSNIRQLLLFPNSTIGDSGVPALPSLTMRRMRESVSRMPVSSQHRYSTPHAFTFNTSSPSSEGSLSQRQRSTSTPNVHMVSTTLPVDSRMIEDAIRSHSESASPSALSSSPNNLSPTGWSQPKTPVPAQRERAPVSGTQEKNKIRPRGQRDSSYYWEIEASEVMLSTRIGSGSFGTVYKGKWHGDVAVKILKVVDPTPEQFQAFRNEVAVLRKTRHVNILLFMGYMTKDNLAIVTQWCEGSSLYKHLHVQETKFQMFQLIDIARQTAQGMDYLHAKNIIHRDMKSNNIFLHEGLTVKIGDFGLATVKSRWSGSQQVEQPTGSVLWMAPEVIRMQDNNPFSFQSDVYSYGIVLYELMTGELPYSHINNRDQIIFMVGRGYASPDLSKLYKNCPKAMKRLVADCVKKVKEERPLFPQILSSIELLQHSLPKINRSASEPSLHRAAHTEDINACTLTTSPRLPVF
Procedure: (§1) In a final volume of 25 µL, the tested kinase (5–10 mU) was incubated with 25 mM Tris pH 7.5, 0.02 mM EDTA, 0.66 mg/mL myelin basic protein, 10 mM magnesium acetate and [γ^33P-ATP] (specific activity approx. 500 cpm/pmol, concentration as required). The reaction was initiated by the addition of the Mg-ATP mix. After incubation for 40 min at room temperature, the reaction was stopped by the addition of 5 µL of a 3% phosphoric acid solution. 10 µL of the reaction was then spotted onto a P30 filtermat and washed three times for 5 min in 75 mM phosphoric acid and once in methanol before drying and scintillation counting.

[2] = biological target: T1, V600E-B-RAF (Homo sapiens, UniProt P15056, V600E); assay: Cell-free kinase profiling, V600E-B-RAF; type: biochemical; details: for inhibition at 1 µM / One-dose (1 µM) results against V600E-B-RAF (% inhibition): mean of duplicate assays ± SEM; for inhibition at 1 µM: read-out: One-dose (1 µM) results against V600E-B-RAF (% inhibition)
Procedure: The reaction was initiated by the addition of the Mg-ATP mix. After incubation for 40 min at room temperature, the reaction was stopped by the addition of 5 µL of a 3% phosphoric acid solution. 10 µL of the reaction was then spotted onto a P30 filtermat and washed three times for 5 min in 75 mM phosphoric acid and once in methanol before drying and scintillation counting.
Target sequence in this assay (P15056 whole entry V600E): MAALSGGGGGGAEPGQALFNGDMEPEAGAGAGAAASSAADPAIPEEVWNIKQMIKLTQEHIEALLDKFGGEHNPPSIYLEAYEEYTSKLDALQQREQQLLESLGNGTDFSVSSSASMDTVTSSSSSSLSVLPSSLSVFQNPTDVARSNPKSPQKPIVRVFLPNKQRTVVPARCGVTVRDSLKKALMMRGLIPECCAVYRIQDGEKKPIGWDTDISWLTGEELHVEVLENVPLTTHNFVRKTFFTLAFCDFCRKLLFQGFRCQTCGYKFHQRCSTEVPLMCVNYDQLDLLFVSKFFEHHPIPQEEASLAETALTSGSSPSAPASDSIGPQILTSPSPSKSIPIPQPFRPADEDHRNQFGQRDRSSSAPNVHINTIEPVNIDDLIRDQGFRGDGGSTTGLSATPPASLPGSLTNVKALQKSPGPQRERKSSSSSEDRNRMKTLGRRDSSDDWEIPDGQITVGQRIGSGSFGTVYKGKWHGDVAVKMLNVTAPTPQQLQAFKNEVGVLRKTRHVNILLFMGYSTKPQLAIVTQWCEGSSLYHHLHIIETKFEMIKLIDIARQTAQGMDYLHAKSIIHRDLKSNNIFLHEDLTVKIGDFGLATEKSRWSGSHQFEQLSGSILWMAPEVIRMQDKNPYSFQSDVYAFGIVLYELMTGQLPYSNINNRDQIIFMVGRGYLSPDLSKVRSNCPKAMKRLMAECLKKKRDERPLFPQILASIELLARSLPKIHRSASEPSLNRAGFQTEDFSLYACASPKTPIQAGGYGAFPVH

[3] = tested on: four melanoma cell lines; assay: MTT assay, four melanoma cell lines (range); type: cell-based; details: range over A375, MDA-MB-435, SK-MEL-28, UACC-62; read-out: IC50 against four melanoma cell lines (range)
Procedure: (§2) The melanoma and normal skin cell lines were maintained in DMEM including 10% foetal bovine serum (FBS) and 1% penicillin/streptomycin in a humid atmosphere containing 5% carbon dioxide at 37 °C. […] The cells were incubated for 48 h following treatment with the test compounds. The cellular viability was assessed by the conventional 3–(4,5-dimethylthiazol-2-yl)-2,5-diphenyltetrazolium bromide (MTT) reduction assay. MTT assays were carried out with CellTiter 96® (Promega) according to the manufacturer’s instructions. The absorbance at 590 nm was recorded using EnVision 2103 (Perkin Elmer; Boston, MA, USA). The IC50 values were calculated using GraphPad Prism 4.0 software. Triplicate testing was performed.

[4] = tested on: UACC-62 melanoma cell line; assay: MTT assay, UACC-62; type: cell-based; details: Homo sapiens, 48 h, mean of triplicate assays ± SEM, read-out: Antiproliferative activity (IC50 value, µM) UACC-62
Procedure: as §2

[5] = tested on: CCD1106K normal skin epithelial cell line; assay: MTT assay, CCD1106K normal skin cells; type: cell-based; details: 48 h, mean of triplicate assays ± SEM, read-out: Antiproliferative activity (IC50 value, µM) CCD1106K normal skin cells
Procedure: as §2

[6] = tested on: A375 melanoma cell line; assay: MTT assay, A375; type: cell-based; details: Homo sapiens, A-375, 48 h, mean of triplicate assays ± SEM, read-out: Antiproliferative activity (IC50 value, µM) A375
Procedure: as §2

[7] = tested on: MDA-MB-435 melanoma cell line; assay: MTT assay, MDA-MB-435; type: cell-based; details: Homo sapiens, 48 h, mean of triplicate assays ± SEM, read-out: Antiproliferative activity (IC50 value, µM) MDA-MB-435
Procedure: as §2

[8] = biological target: PI3K-C2α (Homo sapiens, UniProt O00443); assay: Kinase panel, PI3K-C2α; type: biochemical; details: mean ± SEM
Procedure: as §1

[9] = biological target: JAK2 (Homo sapiens, UniProt O60674); assay: Kinase panel, JAK2; type: biochemical; details: mean ± SEM
Procedure: as §1

[10] = biological target: ABL (Homo sapiens, UniProt P00519); assay: Kinase panel, ABL; type: biochemical; details: mean ± SEM
Chain of ABL (P00519 whole entry): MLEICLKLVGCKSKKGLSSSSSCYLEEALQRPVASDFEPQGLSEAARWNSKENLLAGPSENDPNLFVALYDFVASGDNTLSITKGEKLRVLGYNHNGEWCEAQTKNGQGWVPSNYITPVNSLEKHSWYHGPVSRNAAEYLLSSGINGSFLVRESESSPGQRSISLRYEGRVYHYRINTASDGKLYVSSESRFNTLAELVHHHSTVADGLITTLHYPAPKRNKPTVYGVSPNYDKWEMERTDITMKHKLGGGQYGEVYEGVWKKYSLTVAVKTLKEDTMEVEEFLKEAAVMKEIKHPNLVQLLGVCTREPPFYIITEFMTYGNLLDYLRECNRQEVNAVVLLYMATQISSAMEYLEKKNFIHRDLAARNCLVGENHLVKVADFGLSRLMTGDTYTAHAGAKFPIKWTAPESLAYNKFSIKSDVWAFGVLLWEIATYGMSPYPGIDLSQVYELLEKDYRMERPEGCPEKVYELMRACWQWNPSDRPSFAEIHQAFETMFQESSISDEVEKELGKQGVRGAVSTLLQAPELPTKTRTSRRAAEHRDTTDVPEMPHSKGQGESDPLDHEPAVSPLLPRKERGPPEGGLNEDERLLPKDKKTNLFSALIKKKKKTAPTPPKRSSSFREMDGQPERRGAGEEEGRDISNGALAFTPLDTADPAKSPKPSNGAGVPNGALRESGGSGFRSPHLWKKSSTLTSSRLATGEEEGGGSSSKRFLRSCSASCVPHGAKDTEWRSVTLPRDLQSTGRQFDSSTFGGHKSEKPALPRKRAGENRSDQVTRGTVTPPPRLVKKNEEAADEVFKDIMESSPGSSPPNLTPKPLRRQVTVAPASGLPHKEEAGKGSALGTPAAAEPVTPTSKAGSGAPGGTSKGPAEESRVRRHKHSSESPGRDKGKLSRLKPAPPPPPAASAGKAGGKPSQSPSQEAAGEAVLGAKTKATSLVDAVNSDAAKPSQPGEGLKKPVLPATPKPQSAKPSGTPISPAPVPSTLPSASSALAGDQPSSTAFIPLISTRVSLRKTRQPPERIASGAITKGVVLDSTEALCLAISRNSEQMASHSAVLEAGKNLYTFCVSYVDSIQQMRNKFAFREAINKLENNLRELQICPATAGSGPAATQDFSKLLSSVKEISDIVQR
Procedure: as §1

[11] = biological target: PDGFRβ (Homo sapiens, UniProt P09619); assay: Kinase panel, PDGFRβ; type: biochemical; details: mean ± SEM
Procedure: as §1

[12] = biological target: cKIT (Homo sapiens, UniProt P10721); assay: Kinase panel, cKIT; type: biochemical; details: mean ± SEM
Procedure: as §1

[13] = biological target: JAK1 (Homo sapiens, UniProt P23458); assay: Kinase panel, JAK1; type: biochemical; details: mean ± SEM
Procedure: as §1

[14] = biological target: KDR (Homo sapiens, UniProt P35968); assay: Kinase panel, KDR; type: biochemical; details: mean ± SEM
Procedure: as §1

[15] = tested on: SK-MEL-28 melanoma cell line; assay: MTT assay, SK-MEL-28; type: cell-based; details: Homo sapiens, 48 h, mean of triplicate assays ± SEM, read-out: Antiproliferative activity (IC50 value, µM) SK-MEL-28
Procedure: as §2

[16] = biological target: mTOR (Homo sapiens, UniProt P42345); assay: Kinase panel, mTOR; type: biochemical; details: mean ± SEM
Procedure: as §1

[17] = biological target: FLT3 (Homo sapiens, UniProt P36888); assay: Kinase panel, FLT3; type: biochemical
Chain of FLT3 (P36888 27-993, species assumed): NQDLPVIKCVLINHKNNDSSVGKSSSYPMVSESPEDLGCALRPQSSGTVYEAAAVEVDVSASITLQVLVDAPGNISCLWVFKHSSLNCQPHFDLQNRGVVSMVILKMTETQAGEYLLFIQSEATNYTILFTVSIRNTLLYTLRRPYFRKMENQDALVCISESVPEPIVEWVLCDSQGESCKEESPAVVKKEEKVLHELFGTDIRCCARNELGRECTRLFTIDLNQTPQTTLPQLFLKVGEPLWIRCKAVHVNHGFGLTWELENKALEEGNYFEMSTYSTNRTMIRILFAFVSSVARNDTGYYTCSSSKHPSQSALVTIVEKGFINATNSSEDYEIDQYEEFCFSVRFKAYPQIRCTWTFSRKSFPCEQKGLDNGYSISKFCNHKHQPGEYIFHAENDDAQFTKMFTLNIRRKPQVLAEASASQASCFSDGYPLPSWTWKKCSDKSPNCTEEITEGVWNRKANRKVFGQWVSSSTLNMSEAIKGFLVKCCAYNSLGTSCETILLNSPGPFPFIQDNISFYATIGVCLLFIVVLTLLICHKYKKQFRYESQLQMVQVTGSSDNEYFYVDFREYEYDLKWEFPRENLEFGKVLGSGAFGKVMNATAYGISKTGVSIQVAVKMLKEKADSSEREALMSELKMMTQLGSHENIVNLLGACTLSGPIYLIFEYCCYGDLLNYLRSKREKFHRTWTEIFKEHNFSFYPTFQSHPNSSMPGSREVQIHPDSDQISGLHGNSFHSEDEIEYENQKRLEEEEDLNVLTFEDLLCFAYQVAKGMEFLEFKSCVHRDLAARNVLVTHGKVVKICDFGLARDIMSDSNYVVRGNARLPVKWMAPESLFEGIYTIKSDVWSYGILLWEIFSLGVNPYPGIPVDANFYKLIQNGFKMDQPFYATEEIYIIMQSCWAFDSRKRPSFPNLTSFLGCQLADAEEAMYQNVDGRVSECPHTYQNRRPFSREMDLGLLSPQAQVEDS
Procedure: as §1

[18] = biological target: EGFR (Homo sapiens, UniProt P00533); assay: Kinase panel, EGFR; type: biochemical; details: mean ± SEM
Procedure: as §1

[19] = biological target: VRK1 (Homo sapiens, UniProt Q99986); assay: Kinase panel, VRK1; type: biochemical; details: mean ± SEM
Procedure: as §1

[20] = biological target: JNK1(α1) (Homo sapiens, UniProt P45983); assay: Kinase panel, JNK1(α1); type: biochemical; details: mean ± SEM
Procedure: as §1

[21] = tested on: 30-kinase panel; assay: 30-kinase panel as a whole; type: biochemical; details: 1 µM; all panel kinases apart from V600E-B-RAF and FLT3
Procedure: as §1

[22] = biological target: MEK2 (Homo sapiens, UniProt P36507); assay: Kinase panel, MEK2; type: biochemical; details: mean ± SEM
Chain of MEK2 (P36507 whole entry): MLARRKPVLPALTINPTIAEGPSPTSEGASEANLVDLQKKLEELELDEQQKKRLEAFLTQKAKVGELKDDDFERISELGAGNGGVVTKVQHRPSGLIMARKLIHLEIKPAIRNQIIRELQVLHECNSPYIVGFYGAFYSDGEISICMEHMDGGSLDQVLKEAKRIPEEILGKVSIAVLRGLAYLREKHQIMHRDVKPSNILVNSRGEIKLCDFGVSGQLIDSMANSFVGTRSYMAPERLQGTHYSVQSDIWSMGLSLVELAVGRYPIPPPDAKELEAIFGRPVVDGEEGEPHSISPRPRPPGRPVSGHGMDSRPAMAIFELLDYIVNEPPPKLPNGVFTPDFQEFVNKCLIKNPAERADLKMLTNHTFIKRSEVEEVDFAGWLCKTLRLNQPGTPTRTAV
Procedure: as §1

[23] = biological target: B-RAF^wt (Homo sapiens, UniProt P15056); assay: Kinase panel, B-RAF wt; type: biochemical; details: mean ± SEM
Chain of B-RAF^wt (P15056 whole entry): as the sequence (P15056 whole entry V600E) above, with E600V counted along it
Procedure: as §1

[24] = biological target: LCK (Homo sapiens, UniProt P06239); assay: Kinase panel, LCK; type: biochemical; details: mean ± SEM
Procedure: as §1

[25] = biological target: ErbB2 (Homo sapiens, UniProt P04626); assay: Kinase panel, ErbB2; type: biochemical; details: mean ± SEM
Procedure: as §1

[26] = biological target: ROS (Homo sapiens, UniProt P08922); assay: Kinase panel, ROS; type: biochemical; details: mean ± SEM
Procedure: as §1

[27] = biological target: A-RAF (Homo sapiens, UniProt P10398); assay: Kinase panel, A-RAF; type: biochemical; details: mean ± SEM
Procedure: as §1

[28] = biological target: MEK1 (Homo sapiens, UniProt Q02750); assay: Kinase panel, MEK1; type: biochemical; details: mean ± SEM
Chain of MEK1 (Q02750 whole entry): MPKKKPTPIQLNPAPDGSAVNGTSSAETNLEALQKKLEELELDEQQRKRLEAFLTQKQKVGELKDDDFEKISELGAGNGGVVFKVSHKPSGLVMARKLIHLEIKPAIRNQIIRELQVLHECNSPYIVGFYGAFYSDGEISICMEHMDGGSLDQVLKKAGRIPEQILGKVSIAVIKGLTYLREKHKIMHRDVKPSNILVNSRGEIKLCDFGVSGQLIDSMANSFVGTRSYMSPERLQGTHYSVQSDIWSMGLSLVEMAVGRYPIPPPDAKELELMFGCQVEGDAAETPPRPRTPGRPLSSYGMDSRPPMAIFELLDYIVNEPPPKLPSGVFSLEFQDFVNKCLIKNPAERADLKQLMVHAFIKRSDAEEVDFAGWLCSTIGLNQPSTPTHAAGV
Procedure: as §1

[29] = biological target: T1, V600E-B-RAF; assay: In-cell kinase assay (MEK1 phosphorylation ELISA in MEF-V600E-B-RAF:ER cells); type: cell-based; details: MEF cell line, phospho-MEK1 readout, 90 min compound incubation; read-out: in-cell V600E-B-RAF kinase inhibition IC50
Procedure: MEF-V600E-B-RAF:ER cells were plated in Dulbecco’s modified eagle medium (DMEM) supplemented with 10% FCS in multiwell cell culture plates. Compound incubation (90 min at 37 °C) was done in serum-free medium. […] For stimulation, cells were treated with 1 µM hydroxytamoxifen for 1 h at room temperature. After cell lysis, quantification of MEK1 phosphorylation was assessed in 96-well plates via sandwich-ELISA using a MEK1 specific capture antibody and a phospho-MEK1-Ser218/222 specific detection antibody.

[30] = biological target: BTK (Homo sapiens, UniProt Q06187); assay: Kinase panel, BTK; type: biochemical; details: mean ± SEM
Procedure: as §1

[31] = biological target: ALK (Homo sapiens, UniProt Q9UM73); assay: Kinase panel, ALK; type: biochemical; details: mean ± SEM
Procedure: as §1

[32] = biological target: FMS (Homo sapiens, UniProt P07333); assay: Kinase panel, FMS; type: biochemical; details: mean ± SEM
Procedure: as §1

[33] = biological target: ErbB4 (Homo sapiens, UniProt Q15303); assay: Kinase panel, ErbB4; type: biochemical; details: mean ± SEM
Procedure: as §1

[34] = biological target: DMPK (Homo sapiens, UniProt Q09013); assay: Kinase panel, DMPK; type: biochemical; details: mean ± SEM
Chain of DMPK (Q09013 whole entry): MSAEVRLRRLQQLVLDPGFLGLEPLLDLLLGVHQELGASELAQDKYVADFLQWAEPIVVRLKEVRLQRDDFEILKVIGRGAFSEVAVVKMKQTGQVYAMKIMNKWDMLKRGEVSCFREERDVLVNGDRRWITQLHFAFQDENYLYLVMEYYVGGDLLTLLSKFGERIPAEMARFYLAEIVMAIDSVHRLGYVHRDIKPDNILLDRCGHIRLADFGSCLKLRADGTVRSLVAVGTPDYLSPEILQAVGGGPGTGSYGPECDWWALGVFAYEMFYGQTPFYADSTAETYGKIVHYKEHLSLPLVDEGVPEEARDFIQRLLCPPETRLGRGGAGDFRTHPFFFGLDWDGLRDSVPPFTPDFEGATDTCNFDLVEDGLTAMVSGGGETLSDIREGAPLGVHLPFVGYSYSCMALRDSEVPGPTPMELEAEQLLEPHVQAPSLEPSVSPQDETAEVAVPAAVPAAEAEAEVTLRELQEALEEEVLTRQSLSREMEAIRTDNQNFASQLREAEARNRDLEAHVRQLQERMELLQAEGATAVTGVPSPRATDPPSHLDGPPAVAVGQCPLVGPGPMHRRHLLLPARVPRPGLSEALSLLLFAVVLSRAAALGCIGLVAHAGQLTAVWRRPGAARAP
Procedure: as §1

[35] = biological target: Aurora-A (Homo sapiens, UniProt O14965); assay: Kinase panel, Aurora-A; type: biochemical; details: mean ± SEM
Procedure: as §1

[36] = biological target: PI3Kα (Homo sapiens, UniProt P42336); assay: Kinase panel, PI3Kα; type: biochemical; details: mean ± SEM
Procedure: as §1

[37] = biological target: TRKA (Homo sapiens, UniProt P04629); assay: Kinase panel, TRKA; type: biochemical; details: mean ± SEM
Procedure: as §1

[38] = 10-dose mode, read-out: IC50 value (nM) against RAF1
[39] = from the IC50 values of Table 1, used for QSAR
[40] = 10-dose mode, read-out: IC50 value (nM) against V600E-B-RAF

O=C(NCCNc1nccc(-c2c(-c3cccc(O)c3)nc3sccn23)n1)c1ccc(N2CCOCC2)c(C(F)(F)F)c1 [Compound 1zg]
inhibition at 1 µM [1]: 90.8% | IC50 [1, 38]: 158 nM | inhibition at 1 µM [2]: 99% | IC50 ([2]; from the IC50 values of Table 1, used for QSAR, read-out: pIC50 (V600E- B-RAF) (converted)): 15.8 nM

O=C(NCCNc1nccc(-c2c(-c3cccc(O)c3)nc3sccn23)n1)c1ccccc1O [Compound 1zc]
One-dose (1 µM) results against RAF1 (% inhibition) [1]: 99.32% ± 0.23% | IC50 [1, 38]: 10.5 nM | pIC50 (RAF1) [1, 39]: 7.979 | One-dose (1 µM) results against V600E-B-RAF (% inhibition) [2]: 101.07% ± 1.53% | IC50 [2, 40]: 1.9 nM | pIC50 (V600E- B-RAF) [2, 39]: 8.721

CNC(=O)c1cc(Oc2ccc(NC(=O)Nc3ccc(Cl)c(C(F)(F)F)c3)cc2)ccn1 [Sorafenib, sorafenib, reference compound]
IC50 [3]: 1950 to 5450 nM | IC50 [4]: 1.95 ± 0.08 µM | IC50 [5]: 11.6 ± 0.46 µM | IC50 [6]: 5.45 ± 0.53 µM | IC50 [7]: 3.16 ± 0.2 µM

COc1cccc(-c2nc3sccn3c2-c2ccnc(NCCNC(=O)c3ccccc3)n2)c1 [Compound 1u]
One-dose (1 µM) results against RAF1 (% inhibition) [1]: 74.00% ± 0.64% | One-dose (1 µM) results against V600E-B-RAF (% inhibition) [2]: 95.03% ± 0.66% | IC50 [2, 40]: 45.1 nM | pIC50 (V600E- B-RAF) [2, 39]: 7.346

COc1cccc(-c2nc3sccn3c2-c2ccnc(NCCNC(=O)c3ccccc3O)n2)c1 [Compound 1v]
One-dose (1 µM) results against RAF1 (% inhibition) [1]: 59.25% ± 2.53% | One-dose (1 µM) results against V600E-B-RAF (% inhibition) [2]: 90.82% ± 0.25% | IC50 [2, 40]: 100 nM | pIC50 (V600E- B-RAF) [2, 39]: 7.000

O=C(NCCNc1nccc(-c2c(-c3cccc(O)c3)nc3sccn23)n1)c1ccccc1 [Compound 1zb]
inhibition at 1 µM [8]: 50% | inhibition at 1 µM [1]: 99.4% | IC50 ([1]; from the IC50 values of Table 1, used for QSAR, read-out: pIC50 (RAF1) (converted)): 8.2 nM | inhibition at 1 µM [9]: 3.76% | inhibition at 1 µM [10]: 7.57% | inhibition at 1 µM [11]: 12.5% | inhibition at 1 µM [2]: 99.5% | IC50 [2, 40]: 0.978 nM | IC50 [3]: 180 to 590 nM | inhibition at 1 µM [12]: 9.63% | inhibition at 1 µM [13]: -0.26% | inhibition at 1 µM [14]: 18.8% | IC50 [4]: 0.18 ± 0.02 µM | IC50 [15]: 0.38 ± 0.05 µM | inhibition at 1 µM [16]: 7.83% | inhibition at 1 µM ([17]; 1 µM, mean ± SEM): 73.1% | IC50 ([17]; read-out: IC50 (nM) against FLT3): 838 nM | inhibition at 1 µM [18]: 19.9% | inhibition at 1 µM [19]: 3.93% | inhibition at 1 µM [20]: 0.76% | inhibitory effect against all the other kinases of the panel [21]: less than 50% | inhibition at 1 µM [22]: 26.6% | inhibition at 1 µM [23]: 23.4% | IC50 [5]: 9.26 ± 0.38 µM | inhibition at 1 µM [24]: 12.4% | inhibition at 1 µM [25]: 2.17% | IC50 [6]: 0.46 ± 0.03 µM | inhibition at 1 µM [26]: 2.02% | inhibition at 1 µM [27]: 9.14% | inhibition at 1 µM [28]: 1.5% | IC50 [29]: 190 nM | inhibition at 1 µM [30]: 17% | inhibition at 1 µM [31]: 41.2% | inhibition at 1 µM [32]: 12.2% | inhibition at 1 µM [33]: 13.7% | inhibition at 1 µM [34]: 0.84% | inhibition at 1 µM [35]: 49.8% | inhibition at 1 µM [36]: 5.85% | IC50 [7]: 0.59 ± 0.06 µM | inhibition at 1 µM [37]: 46.7%
